Results from PMC2853575, “Discovery of Selective Inhibitors Against EBNA1 via High Throughput In Silico Virtual Screening” (PLoS ONE, 2010).
“And” between values parts separate entries of the source, which are not always exact repeats. Equal values may be shown once. Read-outs that look alike come from different tables or passages of the source.

Legend:
[1] = tested on: EBV genome copy number in the Raji Burkitt lymphoma cell line; assay: Raji EBV genome copy number assay; type: cell-based, Epstein-Barr virus; conditions: six days, Raji cells, real time PCR EBV DNA (DS) relative to actin
Method: To further evaluate the ability of these compounds to inhibit the EBNA1 function required for EBV genome replication, we assayed their effect on EBV genome copy number in the Raji Burkitt lymphoma cell line (Fig. 5). Raji cells typically contain ∼100 copies of the EBV genome per cell. […] Therefore, we assessed the effects of HU, SC7, SC11, and SC19 on EBV copy number in Raji cells. Cells were treated with 10 µM SC7, SC11, SC19 or with 100 µM HU for six days. The EBV genome copy number was determined by real time PCR for EBV DNA (DS) relative to cellular actin DNA.
Raji cells (purchased from ATCC) were grown at 5×10^6 cells/ml in RPMI media supplemented with 10% FBS and 10 mM Streptomycin and 10 mm Penicillin. Test compounds were added to achieve a final concentration of 10 uM. Cells were grown at 37°C for three days and then passaged 1∶10 into fresh media with the same concentration of drug. After a second 3-day incubation cells were harvested and the DNA was isolated using ChIP Lysis Buffer followed by sonication, phenol∶chloroform extraction, and ethanol precipitation. Relative EBV DNA copy number was quantified by real-time PCR with primers for cellular actin and the EBV dyad-symmetry region, as described previously.

[2] = biological target: T1, EBNA1 DNA binding domain (DBD) (Epstein-Barr virus, UniProt P03211); assay: Fluorescence polarization (FP) assay of EBNA1-DNA binding
T1 construct: 246 nM EBNA1 DBD (aa 459–607); hexa-histidine (N); made in house; host or cells: E. coli
Method: (§1) The EBNA1 DNA binding domain (DBD) (aa 454–607) with a hexa-histidine amino-terminal fusion protein was expressed in E. coli and purified over Ni-NTA agarose according to manufacturers recommendations (Qiagen). The protein was purified from four liters of E. coli to generate ∼20 mg of highly purified EBNA1 protein, estimated to be >90% pure. Purified protein was then dialyzed into a buffer consisting of 200 mM NaCl, 20 mM, Tris-HCl pH 7.4 and 20% Glycerol. Hexa-His tagged Zta was purified from E. coli to near homogeneity, similar to EBNA1 protein. Purified Zta was dialyzed into 500 mM NaCl, Tris-HCl pH 7.4 and 20% Glycerol.
(§2) A reaction mix containing 200 mM NaCl, 20 mM Tris-Cl pH 7.4, 1 mM DTT, 10 ug/mL BSA, 10 nM Cy5 5′ modified EBNA1 (Cy5-GGGTAGCATATGCTATCTagatagcatatgctaccc) or ZTA (Cy5-CACTGACTCATTaatgagtcagtg binding site) oligonucleotide hairpins (purchased from IDT) and 246 nM EBNA1 DBD (aa 459–607) or 300 nM ZTA full length purified recombinant protein was incubated for 20 minutes at room temperature prior to dispensing (BioTek MicroFlo Select) 30 uL to each well of a 384 well black opaque microtiter plate containing the test compounds. Test plates were centrifuged at 165×g prior to fluoresence polarizaration measurements in an Envision Xciter multilable plate reader (Perkin Elmer) using a Cy5 FP 620 excitation and Cy5 FP P/S-pol 688 emission filters.
(§3) To determine IC50s, an 11- point series of 2-fold dilutions in DMSO was performed in duplicate starting at an initial concentration of 50 mM using a Janus Verispan (Perkin Elmer) to create a master plate. From this master plate 0.5 uL was transfered to black opaque 384 well Optiplate (Perkin Elmer) using a Janus MDT (Perkin Elmer) or to microfuge tubes by hand. The plate or microfuge tubes were assayed using the FP and EMSA protocols described above. […] The data was calculated as percentage of EBNA1 binding activity and then plotted versus the log of the concentration of inhibitor. Using GraphPad Prism 5.0 software the plotted data was fit with a Hill-Slope dose-response curve to calculate the relative IC50.

Zta [3] = biological target: T2, Zta (Epstein-Barr virus, UniProt P03206); assay: Fluorescence polarization (FP) assay of Zta-DNA binding (specificity control); conditions: for IC50: inhibitor 833 to 7 µM, 2-fold dilutions, 300 nM Zta, read-out: IC50, inhibition of Zta-DNA binding (FP, Fig. 3 panel B)
T2 construct: 300 nM ZTA full length purified recombinant protein; Hexa-His; made in house; host or cells: E. coli
Method: as §1, §2, §3

Zta [4] = biological target: T2, Zta; assay: EMSA of Zta-DNA binding (specificity control)
Method: (§4) An EMSA reaction buffer was prepared containing 20% Glycerol, 200 mM NaCl, 20 mM Tris-Cl pH 7.4, 1 mM DTT, 10 ug/mL BSA, 10 nM Cy5 oligonucleotide probe and with or without 246 nM EBNA1 DBD or 300 nM Zta full length purified recombinant protein. This solution was incubated for 20 minutes at room temperature to ensure binding. 30 uL of this solution was dispensed to eppendorf tubes containing 0.5 uL of a test compound in DMSO and mixed. Samples were then loaded onto a 6% polyacrylamide gel in 1/2X Tris-Borate buffer and electrophoresed for 90 min at 170 V. The gel was then scanned for flouresence using at Typhoon Imager (GE Healthcare).
as §3

[5] = tested on: EBNA1 transcription activation of Cp; assay: EBNA1 transcription activation assay (OriP-Cp-Luciferase reporter) in HEK293T cells; type: cell-based, Epstein-Barr virus; conditions: 5 µM compound, 48 hrs, transfected HEK293T cells
Method: (§5) SC7, SC11, and SC19 were assayed for their ability to inhibit EBNA1 in two cell-based assays. Transcription activation of the EBV Cp promoter by EBNA1 is known to be essential for B-cell immortalization. We therefore assayed the effect of compounds to inhibit EBNA1 transcription activation of Cp using a luciferase reporter-based assay in transiently transfected HEK293T cells (Fig. 4). The luciferase reporter plasmid consisted of a ∼2 kb region of EBV containing both OriP and Cp fused upstream of the luciferase gene. Cotransfection of this plasmid with an EBNA1 expression plasmid produced a 4–5 fold increase in luciferase activity relative to control expression vector lacking EBNA1 (data not shown). Incubation of transfected cells with control vehicle DMSO had no effect on EBNA1 transcription activation. […] As a control for specificity, the same compounds were assayed for their inhibition of Zta transcription activation. Zta is a potent transcription activator of the EBV BHLF1 promoter. We therefore assayed these compounds for their effect on Zta transactivation of BHLF1 promoter fused to luciferase reporter gene.
(§6) HEK293T cells (purchased from ATCC) were seeded in 24-well plates at a density of 50,000 cells/well in DMEM media with 10% FBS. Following an 18 hr incubation at 37°C, cells were transfected using 2 µl of lipofectamine with 0.4 ug/well of a pCMV-FLAG-EBNA1, pCMV-FLAG-ZTA (N362) or a control pCMV-FLAG vector and 0.2 ug/well of either a Cp-Luciferase (EBNA1-reporter) or a HP-Luciferase (Zta-reporter) plasmid. All samples were cotransfected with 100 ng of Renilla expression vector as an internal control for transfection efficiency. After 6 hrs the transfection media was replaced and test compounds were added to achieve a final concentration of 5 uM. Cells were incubated at 37°C for 48 hrs and then harvested. Cells were lysed and prepared for analysis using the Promega Dual Reporter system and luminescence was measured using a Perkin Elmer Wallac Victor^2 1420 Multilabel reader.

[6] = tested on: Zta transactivation of BHLF1 promoter; assay: Zta transcription activation assay (BHLF1-Luciferase reporter) in HEK293T cells; type: cell-based, Epstein-Barr virus; conditions: for inhibition at 5 µM: human gammaherpesvirus 4, HEK-293T, 48 h, read-out: Inhibition of Zta transactivation
Method: as §5, §6

[7] = biological target: T1, EBNA1 DNA binding domain (DBD); assay: EMSA of EBNA1-DNA binding; conditions: Fig. 3
Method: as §4, §3

[8] = inhibitor 833 to 7 µM, 2-fold dilutions, 246 nM EBNA1 DBD, read-out: IC50, inhibition of EBNA1-DNA binding (FP, Fig. 3 panel A)
[9] = purified EBNA1 DBD, Cy5 DNA hairpin, read-out: IC50, inhibition of EBNA1-DNA binding in FP assay

T1 sequence (P03211 459-607): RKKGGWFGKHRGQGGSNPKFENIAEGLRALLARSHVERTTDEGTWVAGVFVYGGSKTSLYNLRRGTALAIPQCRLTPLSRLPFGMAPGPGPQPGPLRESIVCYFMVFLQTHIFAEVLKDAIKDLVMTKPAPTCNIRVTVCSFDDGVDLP
T2 sequence (P03206 whole entry): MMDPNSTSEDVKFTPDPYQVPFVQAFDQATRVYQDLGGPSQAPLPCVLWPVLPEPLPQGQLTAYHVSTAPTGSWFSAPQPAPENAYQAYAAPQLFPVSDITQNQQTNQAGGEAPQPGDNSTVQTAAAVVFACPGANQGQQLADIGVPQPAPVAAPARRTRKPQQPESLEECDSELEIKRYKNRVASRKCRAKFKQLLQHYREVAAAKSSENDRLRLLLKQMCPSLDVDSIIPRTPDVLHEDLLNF

Row | Structure (SMILES) | Reduction in EBV genome copy number ([1]; 100 µM HU) [%] | IC50 [2, 8] [µM] | IC50 [2, 9] | Inhibition of Zta-DNA binding in FP assay (Zta [3]) | IC50 (Zta [3]) [µM] | Inhibition of Zta-DNA binding in EMSA (Zta [4]) | Inhibition of EBNA1 transcription activation [5] | inhibition at 5 µM [6] [%] | Reduction in EBV genome copy number ([1]; 10 µM compound) | Inhibition of Zta transactivation ([6]; 5 µM compound, 48 hrs, transfected HEK293T cells) | IC50, inhibition of EBNA1-DNA binding in FP assay ([2]; purified EBNA1 DBD, Cy5 DNA hairpin) | Inhibition of EBNA1-DNA binding in EMSA [7]
1 | NC(=O)NO [HU, hydroxyurea, reference compound] | ~50 |  |  |  |  |  |  |  |  |  |  | 
2 | CC(=O)Oc1ccc(N(C(C)=O)S(=O)(=O)c2ccc3ccccc3c2)cc1Br [SC7] |  | 23.7 | 20 to 100 µM and 23 µM | no significant inhibition | 300 | no significant inhibition | completely blocked | ~60 | no apparent effect |  |  | 
3 | CC(=O)Nc1ccc(S(=O)(=O)N2c3ccccc3C(C)=CC2(C)C)cc1 [SC11] |  | 92.2 | 20 to 100 µM | no significant inhibition | 406 | no significant inhibition | completely blocked | ~60 | 75–90% |  |  | 
4 | N#CCc1ccc(NC(=O)c2cc(Cl)ccc2NS(=O)(=O)c2cccc3nsnc23)cc1 [SC19] |  | 49.1 | 20 to 100 µM and 49 µM | no significant inhibition | ~211 | no significant inhibition | completely blocked |  | 75–90% | no detectable inhibitory effect |  | 
5 | CC1CCc2c(sc3nc(SCc4ccc5c(c4)OCO5)nc(N)c23)C1 (centres unmarked) [SC27] |  | 546 |  |  | 193 |  |  |  |  |  | did not perform well in the FP assay | highly specific inhibition of EBNA1
